Data published in ChEMBL document CHEMBL1938244, “Synthesis, anticancer activity and apoptosis inducing ability of bisindole linked pyrrolo[2,1-c][1,4]benzodiazepine conjugates” (2012).
The source made the active and inactive calls. The rule behind the calls is not given here.

Assays:
SiHa = test: Anticancer activity against human SiHa cells by SRB method; type: functional
COLO 205 = test: Anticancer activity against human COLO205 cells by SRB method; type: functional
MCF7 [1] = test: Induction of apoptosis in human MCF7 cells assessed as caspase-7 activation at 8 uM after 24 hrs by Western blot analysis; type: functional, cell-based
MCF7 [2] = test: Induction of cell cycle arrest in human MCF7 cells assessed as accumulation of cells in S phase at 2 uM after 24 hrs by flow cytometry relative to untreated control; type: functional
MCF7 [3] = test: Induction of cell cycle arrest in human MCF7 cells assessed as accumulation of cells in G0 phase at 8 uM after 24 hrs by flow cytometry (reference value: 3.22%); type: functional
MCF7 [4] = test: Induction of cell cycle arrest in human MCF7 cells assessed as accumulation of cells in G0 phase at 2 uM after 24 hrs by flow cytometry relative to untreated control; type: functional
MCF7 [5] = test: Induction of cell cycle arrest in human MCF7 cells assessed as accumulation of cells in G2/M phase at 8 uM after 24 hrs by flow cytometry (reference value: 25.65%); type: functional
MCF7 [6] = test: Anticancer activity against human MCF7 cells by SRB method; type: functional
MCF7 [7] = test: Induction of cell cycle arrest in human MCF7 cells assessed as accumulation of cells in G1 phase at 8 uM after 24 hrs by flow cytometry relative to untreated control; type: functional
MCF7 [8] = test: Inhibition of HDAC2 protein expression in human MCF7 cells at 2 uM after 24 hrs by Western blotting; type: functional, cell-based
MCF7 [9] = test: Induction of cell cycle arrest in human MCF7 cells assessed as accumulation of cells in G2/M phase at 8 uM after 24 hrs by flow cytometry relative to untreated control; type: functional
MCF7 [10] = test: Induction of cell cycle arrest in human MCF7 cells assessed as accumulation of cells in S phase at 8 uM after 24 hrs by flow cytometry relative to untreated control; type: functional
MCF7 [11] = test: Induction of cell cycle arrest in human MCF7 cells assessed as accumulation of cells in G2/M phase at 2 uM after 24 hrs by flow cytometry relative to untreated control; type: functional
MCF7 [12] = test: Induction of cell cycle arrest in human MCF7 cells assessed as accumulation of cells in G1 phase at 4 uM after 24 hrs by flow cytometry (reference value: 65.58%); type: functional
MCF7 [13] = test: Inhibition of HDAC1 protein expression in human MCF7 cells at 2 uM after 24 hrs by Western blotting; type: functional, cell-based
MCF7 [14] = test: Induction of cell cycle arrest in human MCF7 cells assessed as accumulation of cells in G1 phase at 4 uM after 24 hrs by flow cytometry relative to untreated control; type: functional
MCF7 [15] = test: Induction of cell cycle arrest in human MCF7 cells assessed as accumulation of cells in G0 phase at 4 uM after 24 hrs by flow cytometry (reference value: 3.22%); type: functional
MCF7 [16] = test: Induction of cell cycle arrest in human MCF7 cells assessed as accumulation of cells in G1 phase at 8 uM after 24 hrs by flow cytometry (reference value: 65.58%); type: functional
MCF7 [17] = test: Induction of cell cycle arrest in human MCF7 cells assessed as accumulation of cells in G2/M phase at 4 uM after 24 hrs by flow cytometry relative to untreated control; type: functional
MCF7 [18] = test: Induction of cell cycle arrest in human MCF7 cells assessed as accumulation of cells in G0 phase at 2 uM after 24 hrs by flow cytometry (reference value: 2.9%); type: functional
MCF7 [19] = test: Induction of cell cycle arrest in human MCF7 cells assessed as accumulation of cells in G0 phase at 8 uM after 24 hrs by flow cytometry relative to untreated control; type: functional
MCF7 [20] = test: Induction of cell cycle arrest in human MCF7 cells assessed as accumulation of cells in G1 phase at 2 uM after 24 hrs by flow cytometry (reference value: 46%); type: functional
MCF7 [21] = test: Induction of cell cycle arrest in human MCF7 cells assessed as accumulation of cells in S phase at 8 uM after 24 hrs by flow cytometry (reference value: 5.55%); type: functional
MCF7 [22] = test: Inhibition of HDAC3 protein expression in human MCF7 cells at 2 uM after 24 hrs by Western blotting; type: functional, cell-based
MCF7 [23] = test: Induction of apoptosis in human MCF7 cells assessed as PARP-cleavage at 8 uM after 24 hrs by Western blot analysis; type: functional, cell-based
MCF7 [24] = test: Induction of cell cycle arrest in human MCF7 cells assessed as accumulation of cells in S phase at 2 uM after 24 hrs by flow cytometry (reference value: 14.87%); type: functional
MCF7 [25] = test: Induction of cell cycle arrest in human MCF7 cells assessed as accumulation of cells in G0 phase at 4 uM after 24 hrs by flow cytometry relative to untreated control; type: functional
MCF7 [26] = test: Inhibition of HDAC8 protein expression in human MCF7 cells at 2 uM after 24 hrs by Western blotting; type: functional, cell-based
MCF7 [27] = test: Induction of cell cycle arrest in human MCF7 cells assessed as accumulation of cells in S phase at 4 uM after 24 hrs by flow cytometry relative to untreated control; type: functional
MCF7 [28] = test: Induction of cell cycle arrest in human MCF7 cells assessed as accumulation of cells in G2/M phase at 4 uM after 24 hrs by flow cytometry (reference value: 25.65%); type: functional
MCF7 [29] = test: Induction of cell cycle arrest in human MCF7 cells assessed as accumulation of cells in G1 phase at 2 uM after 24 hrs by flow cytometry relative to untreated control; type: functional
MCF7 [30] = test: Increase in p21 protein level in human MCF7 cells at 2 uM after 24 hrs by Western blotting; type: functional, cell-based
MCF7 [31] = test: Induction of cell cycle arrest in human MCF7 cells assessed as accumulation of cells in S phase at 4 uM after 24 hrs by flow cytometry (reference value: 5.55%); type: functional
KB = test: Anticancer activity against human KB cells by SRB method; type: functional
MCF7 [32] = test: Induction of cell cycle arrest in human MCF7 cells assessed as accumulation of cells in G2/M phase at 2 uM after 24 hrs by flow cytometry (reference value: 36.23%); type: functional
MCF7 [33] = test: Anticancer activity against human MCF7 cells assessed as cell death at 2 uM after 24 hrs by MTT assay; type: functional
A2780 = test: Anticancer activity against human A2780 cells by SRB method; type: functional
Tubulin (Homo sapiens) = Tubulin (Homo sapiens) (UniProt P68371+Q9H4B7+P0DPH7+P68366+Q13509+Q71U36+P04350+Q3ZCM7+P07437+P68363+Q9BQE3+Q6PEY2+Q13885+Q9BVA1+Q9BUF5); test: Inhibition of tubulin polymerization in human MCF7 cells at 2 uM after 24 hrs by FITC-conjugated immunostaining assay; type: cell-based
ZR-75-1 = test: Anticancer activity against human ZR-75-1 cells by SRB method; type: functional
A549 = test: Anticancer activity against human A549 cells by SRB method; type: functional

| Compound | GI50 (SiHa) [µM] | GI50 (COLO 205) [µM] | Activity (MCF7 [1]) | Activity (MCF7 [2]) [%] | Activity (MCF7 [3]) [%] | Activity (MCF7 [4]) [%] | Activity (MCF7 [5]) [%] | GI50 (MCF7 [6]) [µM] | Activity (MCF7 [7]) [%] | inhibition (MCF7 [8]) | Activity (MCF7 [9]) [%] | Activity (MCF7 [10]) [%] | Activity (MCF7 [11]) [%] | Activity (MCF7 [12]) [%] | inhibition (MCF7 [13]) | Activity (MCF7 [14]) [%] | Activity (MCF7 [15]) [%] | Activity (MCF7 [16]) [%] | GI50 (KB) [µM] | GI50 (A2780) [µM] | also measured |
| --- | --- | --- | --- | --- | --- | --- | --- | --- | --- | --- | --- | --- | --- | --- | --- | --- | --- | --- | --- | --- | --- |
| COc1cc2c(cc1OCCCCCOc1cccc(C(c3c[nH]c4ccccc34)c3c[nH]c4ccccc34)c1)N=C[C@@H]1CCCN1C2=O | 2.2 | 0.16 | Active | 15.42 | 24.25 | 2.98 | 9.38 | 0.19 | 60.92 | Active | 8.99 | 5.26 | 42.67 | 71.85 | Active | 70.29 | 10.4 | 61.55 | 2.3 | 0.18 | Activity (MCF7 [17]): 10.74%; Activity (MCF7 [18]): 3.47%; Activity (MCF7 [19]): 24.81%; Activity (MCF7 [20]): 39.36%; Activity (MCF7 [21]): 4.82%; inhibition (MCF7 [22]): Active; Activity (MCF7 [23]): Active; Activity (MCF7 [24]): 14.56%; Activity (MCF7 [25]): 10.7%; inhibition (MCF7 [26]): Active; Activity (MCF7 [27]): 8.26%; Activity (MCF7 [28]): 9.08%; Activity (MCF7 [29]): 38.86%; Activity (MCF7 [30]): Active; Activity (MCF7 [31]): 8.67%; Activity (MCF7 [32]): 42.61%; Activity (MCF7 [33]): 50%; inhibition (Tubulin (Homo sapiens)): Active |
| Oc1ccc(C(c2c[nH]c3ccccc23)c2c[nH]c3ccccc23)cc1 |  |  | Active | 9.26 | 7 | 3.16 | 36.44 |  | 46.19 | Active | 37.97 | 8.99 | 33.7 | 50.97 | Active | 49.65 | 5 | 47.59 |  |  | Activity (MCF7 [17]): 35.56%; Activity (MCF7 [18]): 3%; Activity (MCF7 [19]): 7.05%; Activity (MCF7 [20]): 54%; Activity (MCF7 [21]): 8.97%; inhibition (MCF7 [22]): Active; Activity (MCF7 [23]): Active; Activity (MCF7 [24]): 9%; Activity (MCF7 [25]): 5.01%; inhibition (MCF7 [26]): Active; Activity (MCF7 [27]): 9.78%; Activity (MCF7 [28]): 34.69%; Activity (MCF7 [29]): 53.85%; Activity (MCF7 [31]): 9.34%; Activity (MCF7 [32]): 34%; Activity (MCF7 [33]): Active; inhibition (Tubulin (Homo sapiens)): Active |
| COc1cccc2c1C(=O)c1c(O)c3c(c(O)c1C2=O)C[C@@](O)(C(=O)CO)C[C@@H]3O[C@H]1C[C@H](N)[C@H](O)[C@H](C)O1 [DOXORUBICIN] | 1.9 | 14.7 |  |  |  |  |  | < 0.1 |  |  |  |  |  |  |  |  |  |  | 0.16 | < 0.1 | GI50 (ZR-75-1): < 0.1 µM; GI50 (A549): 13 µM |
| COc1cc2c(cc1OCCCCCCOc1cccc(C(c3c[nH]c4ccccc34)c3c[nH]c4ccccc34)c1)N=C[C@@H]1CCCN1C2=O | 30.8 | 2.3 |  |  |  |  |  | 2.01 |  |  |  |  |  |  |  |  |  |  | 30.1 | 2.29 |  |
| COc1cc2c(cc1OCCCCOc1ccc(C(c3c[nH]c4ccccc34)c3c[nH]c4ccccc34)cc1)N=C[C@@H]1CCCN1C2=O | 2.49 | 24 |  |  |  |  |  | 0.18 |  |  |  |  |  |  |  |  |  |  | 2.3 | 2.07 | GI50 (ZR-75-1): 26.5 µM |
